Results: publication PMC10096947 (2023)

System: DOX aptamer (DNA, aptamer) ACCATCTGTGTAAGGGGTAAGGGGTGGT
Experiment: electrochemical aptasensor, SWV, Langmuir isotherm fit
Settings: PBS 0.1 M (Na+/K+ concentrations not given), PBS pH 7.4, room temperature, 20 min incubation, immobilised aptamer

apparent dissociation constant: 2.55 µM
SMILES: COc1cccc2c1C(=O)c1c(O)c3c(c(O)c1C2=O)C[C@@](O)(C(=O)CO)C[C@@H]3O[C@H]1C[C@H](N)[C@H](O)[C@H](C)O1
